Reference: patent EP4729519A1, “CRYSTAL FORM OF ENPP1 INHIBITOR” (CSPC Zhongqi Pharmaceutical Technology (Shijiazhuang) Co., …, priority 2023, dated 2024)
Read-outs that look alike come from different tables or passages of the source.

Legend:
[1] = tested on: SD rat model of myocardial ischemia; test: Rat myocardial ischemia model (LAD ligation), echocardiography and Masson staining; assay type: in vivo; conditions: rats; for reduction of the degree of fibrosis compared with the vehicle control group: Masson staining
Protocol: This study aimed to evaluate the pharmacodynamic effect of the compound of formula (I) in a SD rat model of myocardial ischemia.
After the animals had acclimated to the facility for one week, the model was established by ligation of the left anterior descending coronary artery (LAD). After model establishment, the rats were administered penicillin (80,000 units/rat, i.m.) for 3 days, and disinfected to prevent infection.
One day after model establishment, the modeled animals were randomly divided into 4 groups according to the baseline body weight and echocardiographic imaging indicators, with 4 animals in each sham group (Sham) and 6 animals in each myocardial infarction model group (MI), and drug administration was then initiated. The control group was given the blank vehicle: 5% DMSO + 45% PEG400 + 50% H2O (1% CMC-Na). The experimental groups were administered by oral gavage at doses of 30 mg/kg and 75 mg/kg, respectively, twice daily for 28 consecutive days. The body weights of the animals were monitored daily after administration, and echocardiographic imaging indicators were measured on days 7 and 28. The primary indicators of echocardiographic evaluation were left ventricular fractional shortening (FS) and left ventricular ejection fraction (LVEF). After the echocardiographic measurement on day 28, heart tissues were collected in a tissue fixative for pathological analysis by Masson's trichrome staining.

[2] = tested on: pancreatic cancer Pan02 cells; test: Mouse subcutaneous homograft tumour model of pancreatic cancer Pan02; assay type: in vivo, C57BL/6 mice; conditions: 20 mg/kg oral gavage twice daily
Protocol: • 1. Experimental Objective: The in vivo efficacy of the test drug in the mouse subcutaneous homograft tumour model of pancreatic cancer Pan02 cells was evaluated. • 2. Experimental Methods • 2.1 Cell Culture Mouse pancreatic cancer Pan02 cells were cultured in monolayer in vitro in DMEM medium supplemented with 10% fetal bovine serum, 0.01 mg/mL sinsulin, 1% penicillin/streptomycin/amphotericin B in an incubator at 37 °C with 5% CO2. When the cell saturation was 80%-90% and the number reached the requirement, the cells were harvested, counted, and inoculated. • 2.2 Animals C57BL/6 mice, female, 6-8 weeks old, weighing 18-22 g. The mice were provided by Shanghai Xipu-Bikai Laboratory Animal Co., Ltd., or other suppliers. • 2.3 Tumour Inoculation and Animal Grouping and administration 0.1 Milliliter of Pan02 cells (5×10^6 cells) were inoculated subcutaneously into the right hind back of each mouse, and animal grouping and administration began when the average tumour volume reached about 100-200 mm^3. Animals were weighed and tumour volumes were measured before administration. Mice were randomly divided into groups based on the tumour volume, with 8 mice in each group. […] Tumor volume was calculated using the formula: V=0.5a×b^2, where a and b represented the long and short diameters of the tumour, respectively. […]

[3] = Pharmacokinetic test in mice, plasma concentration by LC-MS/MS; assay type: in vivo, CD-1 male mice; conditions: male, CD-1, mouse; for AUC(0-t): read-out: AUC0-24h
hENPP1 enzyme = target: T1, hENPP1 enzyme (Homo sapiens, UniProt P22413); test: ENPP1 enzymatic inhibition test in vitro (TMP-pNP hydrolysis, OD405); assay type: biochemical; conditions: TMP-pNP substrate, pH 9.5, 37 °C, 0.5 h
T1 sequence (P22413 1-925): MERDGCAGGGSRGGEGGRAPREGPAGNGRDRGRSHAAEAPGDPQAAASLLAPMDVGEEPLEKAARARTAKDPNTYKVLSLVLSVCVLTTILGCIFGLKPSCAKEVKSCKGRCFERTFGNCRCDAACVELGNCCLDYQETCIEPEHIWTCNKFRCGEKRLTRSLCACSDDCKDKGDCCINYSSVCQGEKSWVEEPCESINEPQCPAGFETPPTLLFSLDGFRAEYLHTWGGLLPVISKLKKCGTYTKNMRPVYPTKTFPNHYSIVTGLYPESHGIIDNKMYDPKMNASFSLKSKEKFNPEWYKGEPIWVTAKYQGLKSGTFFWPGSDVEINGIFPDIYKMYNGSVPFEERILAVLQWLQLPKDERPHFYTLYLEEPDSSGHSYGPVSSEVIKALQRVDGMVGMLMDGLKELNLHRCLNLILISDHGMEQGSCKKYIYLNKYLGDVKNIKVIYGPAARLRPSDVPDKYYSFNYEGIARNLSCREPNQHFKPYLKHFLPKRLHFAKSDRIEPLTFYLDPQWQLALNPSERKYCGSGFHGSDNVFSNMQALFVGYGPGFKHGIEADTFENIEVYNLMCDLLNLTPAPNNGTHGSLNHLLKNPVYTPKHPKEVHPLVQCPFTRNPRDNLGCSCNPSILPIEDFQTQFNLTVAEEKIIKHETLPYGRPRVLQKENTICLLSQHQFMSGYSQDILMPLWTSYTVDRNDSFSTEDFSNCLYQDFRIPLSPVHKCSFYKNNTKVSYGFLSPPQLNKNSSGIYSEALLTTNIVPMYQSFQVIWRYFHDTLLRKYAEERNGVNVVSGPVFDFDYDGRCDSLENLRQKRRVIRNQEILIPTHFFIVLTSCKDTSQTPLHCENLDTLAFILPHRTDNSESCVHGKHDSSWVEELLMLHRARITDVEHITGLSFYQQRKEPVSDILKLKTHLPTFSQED
Excerpt: ENPP1 is a transmembrane glycoprotein capable of hydrolyzing nucleotides and derivatives with nucleotide-5'-monophosphate structures. ENPP1 is capable of hydrolyzing artificially synthesized 5'-p-nitrophenyl monophosphate (TMP-pNP) into nucleotide 5'-monophosphate and p-nitrophenol, while p-nitrophenol is a chromogenic product. The production amount of p-nitrophenol product can be directly measured by its absorbance at 405 nm, which is directly proportional to the enzyme activity.
100X serial gradient dilutions of compound were prepared with DMSO, starting from a stock concentration of 1 mM, and using a 4-fold serial gradient dilution to make 10 concentration points. 300 Nanoliter of compounds at gradient concentrations were transferred to a 384-well assay plate (final concentration: starting at 10 µM, 4-fold serial gradient dilution, 10 concentration points) by using Echo. First, 15 µL of 0.2 ng/uL hENPP1 enzyme (2× final concentration) prepared in an assay buffer (250 mM NaCl, 50 mM Tris, pH = 9.5) was added to each well. […] After incubation at 37 °C for 0.5 h, the OD405 nm value was read by the microplate reader. The percentage of inhibition rate was calculated using the formula: %Inhibition Rate=(ODhigh signal control - ODsample well) / (ODhigh signal control - ODlow signal control)*100. The IC50 value was calculated using four-parameter fitting. […]

[4] = tested on: C57 BL/6 mouse model of myocardial ischemia; test: Mouse myocardial ischemia model (LAD ligation), echocardiography and Masson staining; assay type: in vivo; conditions: mice; for reduction of the degree of fibrosis compared with the vehicle control group: Masson staining; for increase of left ventricular ejection fraction (LVEF) compared with the vehicle control group / increase of left ventricular fractional shortening (FS) compared with the vehicle control group: day 1; for increase of left ventricular ejection fraction (LVEF) / increase of left ventricular fractional shortening (FS): day 7
Excerpt: This study aimed to evaluate the pharmacodynamic effect of the compound of formula (I) in a C57 BL/6 mouse model of myocardial ischemia.
After the animals had acclimated to the facility for one week, they were divided into four groups based on their body weights on the day before surgery, with 6 animals in the sham group (Sham) and 8 animals in the model group (MI). On the next day, the animals underwent myocardial ischemia surgery for modeling (the mice in the Sham group only underwent thoracotomy and threading without ligation). The model was established by ligation of the left anterior descending coronary artery (LAD). After model establishment, the mice were administered penicillin (20,000 units/mouse, i.m.) for 3 days, and disinfected to prevent infection.
Each group of animals was administered the corresponding compounds one hour before surgery. The control group (Vehicle) was administered the vehicle: 5% DMSO+45% PEG400+50% H2O (1% CMC-Na). The experimental groups were administered by oral gavage at doses of 4 mg/kg and 20 mg/kg, respectively, twice daily for 28 consecutive days. The body weights of the animals were monitored daily after administration, and echocardiographic imaging indicators were measured on days 1, 7 and 28. The primary indicators of echocardiographic evaluation were left ventricular fractional shortening (FS) and left ventricular ejection fraction (LVEF). After the echocardiographic measurement on day 28, heart tissues were collected in a tissue fixative for pathological analysis by Masson's trichrome staining.

[5] = 30mpk oral gavage twice daily, 7th day
[6] = 30mpk oral gavage twice daily, day 28
[7] = 75mpk oral gavage twice daily, 7th day
[8] = 75mpk oral gavage twice daily, day 28

In the case of `COc1ccc2c3c(cnc2n1)COC(=O)N3Cc1c(F)cc(S(N)(=O)=O)cc1F` [Compound of Formula (I), 3,5-difluoro-4-((8-methoxy-2-oxo-2H-[1,3]oxazino[5,4-c][1,8]naphthyridin-1(4H)-yl)methyl)benzenesulfonamide], the “reduction of the degree of fibrosis compared with the vehicle control group” value (from here on “reduction of the degree of fibrosis”) ([1]; 30 mg/kg twice daily, 28 days) is reported as 5.2%, the “reduction of the degree of fibrosis” value ([1]; 75 mg/kg twice daily, 28 days) is reported as 6.5% and the “effect on body weight” value ([1]; 30 and 75 mg/kg twice daily, 28 days) is reported as “no significant effect on body weight”. The “increase of LVEF” value [1, 5] was 11.43%, the “increase of left ventricular fractional shortening (FS)” value [1, 5] was 9.73% and the “increase of LVEF” value [1, 6] was 18.75%. For the same molecule, the “increase of left ventricular fractional shortening (FS)” value [1, 6] was 13.01%, the “increase of LVEF” value [1, 7] was 18.85% and the “increase of left ventricular fractional shortening (FS)” value [1, 7] was 12.62%. The “increase of LVEF” value [1, 8] was 23.8%, the “increase of left ventricular fractional shortening (FS)” value [1, 8] was 15.88% and the “effect on the body weight of the mice” value ([2]; 16 days) was “no inhibitory effect on the body weight”. The TGI ([2]; after administration for 16 days, p<0.05 vs control group) was 43.4%, the clearance ([3]; 2 mg/kg, IV, 2mpk) was 3.2 mL/min/kg and the half-life ([3]; 2 mg/kg, IV, 2mpk) was 5.35 h. It also gave an AUC(0-t) ([3]; 2 mg/kg, IV, 2mpk) of 10000 ng·h/mL, a Vd ([3]; 2 mg/kg, IV, 2mpk, read-out: Vss) of 1.08 L/kg and a Cmax ([3]; 10 mg/kg, PO, 10mpk) of 8080 ng/mL. It also gave a Tmax ([3]; 10 mg/kg, PO, 10mpk) of 2 h, a half-life ([3]; 10 mg/kg, PO, 10mpk) of 3.5 h and an AUC(0-t) ([3]; 10 mg/kg, PO, 10mpk) of 47800 ng·h/mL. For the same molecule, the IC50 (hENPP1 enzyme) was 50 pM, the “reduction of the degree of fibrosis” value ([4]; 4 mg/kg twice daily, 28 days) was 8.8% and the “reduction of the degree of fibrosis” value ([4]; 20 mg/kg twice daily, 28 days) was 9.6%. For the same molecule, the “effect on body weight” value ([4]; 4 and 20 mg/kg twice daily, 28 days) was “without any significant effect on body weight”, the “increase of left ventricular ejection fraction (LVEF) compared with the vehicle control group” value ([4]; 4 mpk oral gavage twice daily) was 15% and the “increase of left ventricular fractional shortening (FS) compared with the vehicle control group” value ([4]; 4 mpk oral gavage twice daily) was 7%. The “increase of left ventricular ejection fraction (LVEF)” value ([4]; 4 mpk oral gavage twice daily) was 23.4%, the “increase of left ventricular fractional shortening (FS)” value ([4]; 4 mpk oral gavage twice daily) was 12.2% and the “increase of left ventricular ejection fraction (LVEF) compared with the vehicle control group” value ([4]; 20 mpk oral gavage twice daily) was 10%. The “increase of left ventricular fractional shortening (FS) compared with the vehicle control group” value ([4]; 20 mpk oral gavage twice daily) was 5%, the “increase of left ventricular ejection fraction (LVEF)” value ([4]; 20 mpk oral gavage twice daily) was 23.3% and the “increase of left ventricular fractional shortening (FS)” value ([4]; 20 mpk oral gavage twice daily) was 12.3%. The “LVEF and FS in the left ventricle” value ([4]; day 28, vehicle control group further deteriorated) was “further maintained the LVEF and FS”.
